Assay results reported in PubChem BioAssay (NCI).
Where “and” joins values, the source holds several entries; their conditions need not be identical. Identical values can stand only once.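 Cells were grown in 96-well plates and exposed to each compound for 48 hours at five concentrations; endpoints were interpolated linearly between bracketing concentrations, or set to the highest concentration if not reached. Abbreviation: GI50, concentration required for 50% inhibition of growth. TGI: total growth inhibition.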

Tests used:
Test in all cases: growth of human tumour cells (NCI), 48 h
UACC-62 melanoma = test system: UACC-62 melanoma
U251 CNS = test system: U251 CNS
OVCAR-8 ovarian = test system: OVCAR-8 ovarian
NCI-H460 lung = test system: NCI-H460 lung
SNB-19 CNS = test system: SNB-19 CNS
786-0 renal = test system: 786-0 renal
NCI-H226 lung = test system: NCI-H226 lung
HOP-92 NSCLC = test system: HOP-92 NSCLC
TK-10 renal = test system: TK-10 renal
SF-295 CNS = test system: SF-295 CNS

In the case of `COc1cccc2cc(C(N)=O)c(=N)oc12`, the TGI (UACC-62 melanoma) is reported as > 100 µM, the TGI (U251 CNS) is reported as > 100 µM and the TGI (OVCAR-8 ovarian) is reported as > 100 µM. The TGI (NCI-H460 lung) was > 100 µM, the TGI (SNB-19 CNS) was > 100 µM and the TGI (786-0 renal) was > 100 µM. The TGI (NCI-H226 lung) was > 100 µM and the TGI (HOP-92 NSCLC) was > 100 µM.

`COc1cc(N=NN(C)C)c(C(C)c2c3cc(OC)c(OC)cc3cc[n+]2C)cc1OC` (stereo not given) was tested, and the TGI (UACC-62 melanoma) was 59.5 µM, the TGI (U251 CNS) was > 100 µM and the TGI (OVCAR-8 ovarian) was > 100 µM. For the same compound, the TGI (NCI-H460 lung) was > 100 µM, the TGI (TK-10 renal) was 97.5 µM and the TGI (SNB-19 CNS) was > 100 µM. The TGI (SF-295 CNS) was > 100 µM, the TGI (786-0 renal) was > 100 µM and the TGI (NCI-H226 lung) was > 100 µM.

For `C=C=C(C)[Si](C)(C)C`, the TGI (UACC-62 melanoma) was > 100 µM, the TGI (U251 CNS) was > 100 µM and the TGI (OVCAR-8 ovarian) was > 100 µM. For the same compound, the TGI (NCI-H460 lung) was > 100 µM, the TGI (TK-10 renal) was > 100 µM and the TGI (SNB-19 CNS) was > 100 µM. For the same compound, the TGI (SF-295 CNS) was > 100 µM, the TGI (786-0 renal) was > 100 µM and the TGI (NCI-H226 lung) was > 100 µM.

For `COc1cc(OC)c2c(c1OC)OCC(Cc1ccc(O)cc1)C2=O` (stereo not given), the TGI (UACC-62 melanoma) was > 25 µM, the TGI (U251 CNS) was > 25 µM and the TGI (OVCAR-8 ovarian) was > 25 µM. The TGI (NCI-H460 lung) was > 25 µM, the TGI (TK-10 renal) was > 25 µM and the TGI (SNB-19 CNS) was > 25 µM. For the same compound, the TGI (SF-295 CNS) was > 25 µM, the TGI (786-0 renal) was > 25 µM and the TGI (NCI-H226 lung) was > 25 µM.

For `CCOP(=O)(Nc1ccc(-c2ccccc2)cc1)OCC`, the TGI (UACC-62 melanoma) was > 100 µM, the TGI (U251 CNS) was > 100 µM and the TGI (OVCAR-8 ovarian) was > 100 µM. For the same compound, the TGI (NCI-H460 lung) was > 100 µM, the TGI (TK-10 renal) was > 100 µM and the TGI (SNB-19 CNS) was > 100 µM. The TGI (SF-295 CNS) was > 100 µM, the TGI (786-0 renal) was > 100 µM and the TGI (HOP-92 NSCLC) was > 100 µM.

With `NNC(=O)c1c(Cl)c(Cl)c(Cl)c(Cl)c1-c1nc2ccccc2[nH]1` the TGI (UACC-62 melanoma) was 24.7 µM, the TGI (OVCAR-8 ovarian) was > 100 µM and the TGI (NCI-H460 lung) was 31 µM. It also gave a TGI (TK-10 renal) of 63.2 µM, a TGI (SNB-19 CNS) of 88.8 µM and a TGI (SF-295 CNS) of 24 µM. It also gave a TGI (786-0 renal) of 55.8 µM, a TGI (NCI-H226 lung) of 65.4 µM and a TGI (HOP-92 NSCLC) of 43.9 µM.

`O=C1NC2(CCCCC2)N=C2C(Cl)CCCC12Cl` (stereo not given) was tested, and the TGI (UACC-62 melanoma) was > 100 µM, the TGI (U251 CNS) was > 100 µM and the TGI (OVCAR-8 ovarian) was > 100 µM. For the same compound, the TGI (NCI-H460 lung) was > 100 µM, the TGI (TK-10 renal) was > 100 µM and the TGI (SNB-19 CNS) was > 100 µM. The TGI (SF-295 CNS) was > 100 µM, the TGI (786-0 renal) was > 100 µM and the TGI (NCI-H226 lung) was > 100 µM.

`CC(=O)O[C@H]1CC[C@]2(C)[C@H]3CC[C@@H]4[C@H]5[C@H](C(C)C)CC[C@]5(C(=O)OCC(CO)(CO)N=C(N)N)CC[C@@]4(C)[C@]3(C)CC[C@H]2C1(C)C` showed a GI50 (OVCAR-8 ovarian) of 2.32 µM, a TGI (OVCAR-8 ovarian) of 5.45 µM and a GI50 (TK-10 renal) of 1.67 µM. It also gave a TGI (TK-10 renal) of 3.12 µM, a GI50 (SF-295 CNS) of 1.86 µM and a TGI (SF-295 CNS) of 3.79 µM. The GI50 (HOP-92 NSCLC) was 1.48 µM and the TGI (HOP-92 NSCLC) was 2.93 µM.

With `CN(C)CCn1c2ccccc2c2nc3cc4ccccc4cc3nc21` the TGI (UACC-62 melanoma) was 21.1 µM, the TGI (U251 CNS) was 19.5 µM and the TGI (OVCAR-8 ovarian) was 23 µM. For the same compound, the TGI (NCI-H460 lung) was 2.48 µM, the TGI (TK-10 renal) was 26.4 µM and the TGI (SNB-19 CNS) was 27.7 µM. It also gave a TGI (SF-295 CNS) of 17 µM, a TGI (786-0 renal) of 16 µM and a TGI (NCI-H226 lung) of 34.6 µM.

For `O=C1c2ccccc2CC12Cc1cc3c(cc1C2=O)CCC3` (stereo not given), the TGI (U251 CNS) was > 100 µM, the TGI (OVCAR-8 ovarian) was > 100 µM and the TGI (NCI-H460 lung) was > 100 µM. For the same compound, the TGI (TK-10 renal) was > 100 µM, the TGI (SNB-19 CNS) was > 100 µM and the TGI (SF-295 CNS) was > 100 µM. The TGI (786-0 renal) was > 100 µM and the TGI (HOP-92 NSCLC) was > 100 µM.

`CCCNC(=S)N/N=C/c1cccc(C)n1` was tested, and the TGI (UACC-62 melanoma) was 57 µM, the TGI (U251 CNS) was > 100 µM and the TGI (OVCAR-8 ovarian) was > 100 µM. For the same compound, the TGI (TK-10 renal) was > 100 µM, the TGI (SF-295 CNS) was > 100 µM and the TGI (786-0 renal) was > 100 µM. For the same compound, the TGI (NCI-H226 lung) was 72.2 µM and the TGI (HOP-92 NSCLC) was > 100 µM.

In the case of `O=c1[nH]c2ccc(CC(=S)N3CCOCC3)cc2s1`, the TGI (UACC-62 melanoma) is reported as > 100 µM, the TGI (U251 CNS) is reported as > 100 µM and the TGI (OVCAR-8 ovarian) is reported as > 100 µM. The TGI (NCI-H460 lung) was > 100 µM, the TGI (TK-10 renal) was > 100 µM and the TGI (SNB-19 CNS) was > 100 µM. The TGI (SF-295 CNS) was > 100 µM, the TGI (786-0 renal) was > 100 µM and the TGI (NCI-H226 lung) was > 100 µM.

`CCOc1ccc2c(c1)/C(=C(\C(Cl)=C(Cl)Cl)[N+](=O)[O-])N2` was tested, and the TGI (UACC-62 melanoma) was > 100 µM, the TGI (U251 CNS) was > 100 µM and the TGI (OVCAR-8 ovarian) was > 100 µM. For the same compound, the TGI (NCI-H460 lung) was > 100 µM, the TGI (SNB-19 CNS) was > 100 µM and the TGI (SF-295 CNS) was > 100 µM. For the same compound, the TGI (786-0 renal) was > 100 µM and the TGI (NCI-H226 lung) was > 100 µM.

In the case of `N#Cc1[nH]c(=O)n(-c2ccc(Cl)cc2)c1N`, the TGI (UACC-62 melanoma) is reported as > 10 µM, the TGI (U251 CNS) is reported as > 10 µM and the TGI (OVCAR-8 ovarian) is reported as > 10 µM. The TGI (NCI-H460 lung) was > 10 µM, the TGI (TK-10 renal) was > 10 µM and the TGI (SNB-19 CNS) was > 10 µM. The TGI (SF-295 CNS) was > 10 µM, the TGI (786-0 renal) was > 10 µM and the TGI (NCI-H226 lung) was > 10 µM.

With `CC1C(c2ccc3c(c2)OCO3)c2cc3c(cc2OC1N1CCCC1)OCO3` (stereo not given) the TGI (UACC-62 melanoma) was > 100 µM, the TGI (OVCAR-8 ovarian) was > 100 µM and the TGI (NCI-H460 lung) was > 100 µM. The TGI (TK-10 renal) was > 100 µM, the TGI (SNB-19 CNS) was > 100 µM and the TGI (SF-295 CNS) was > 100 µM. For the same compound, the TGI (786-0 renal) was > 100 µM.

For `CN1CCC2(CC1)C(=O)N(N1CCCCCC1)C(=O)N2c1ccccc1`, the TGI (UACC-62 melanoma) was > 100 µM, the TGI (U251 CNS) was > 100 µM and the TGI (OVCAR-8 ovarian) was > 100 µM. For the same compound, the TGI (NCI-H460 lung) was > 100 µM, the TGI (TK-10 renal) was > 100 µM and the TGI (SNB-19 CNS) was > 100 µM. For the same compound, the TGI (SF-295 CNS) was > 100 µM, the TGI (786-0 renal) was > 100 µM and the TGI (NCI-H226 lung) was > 100 µM.

`COc1cc([C@@H]2c3cc4c(cc3[C@@H](NCCNCCO)[C@H]3COC(=O)[C@H]23)OCO4)cc(OC)c1O` was tested, and the TGI (UACC-62 melanoma) was 5.34 µM and 3.61 µM, the TGI (U251 CNS) was 5.35 µM and the TGI (OVCAR-8 ovarian) was > 22.4 µM and 20.8 µM. For the same compound, the TGI (NCI-H460 lung) was 4.49 µM and 3.1 µM, the TGI (TK-10 renal) was 33.8 µM and 39.3 µM and the TGI (SNB-19 CNS) was 19.2 µM and > 32.2 µM. For the same compound, the GI50 (SF-295 CNS) was 1.61 µM and 0.719 µM, the TGI (SF-295 CNS) was > 29 µM and 7.12 µM and the TGI (786-0 renal) was 3.02 µM and 3.48 µM. The TGI (NCI-H226 lung) was 4.97 µM and 4.5 µM.

In the case of `O=C(O)CSCC(=O)Nc1ccc2cccc3c2c1CC3`, the TGI (UACC-62 melanoma) is reported as > 100 µM, the TGI (U251 CNS) is reported as > 100 µM and the TGI (OVCAR-8 ovarian) is reported as > 100 µM. The TGI (TK-10 renal) was > 100 µM, the TGI (SNB-19 CNS) was > 100 µM and the TGI (SF-295 CNS) was > 100 µM. For the same compound, the TGI (786-0 renal) was > 100 µM and the TGI (HOP-92 NSCLC) was > 100 µM.
